What was measured:
[1] = Chemical stability of compound in PBS assessed as compound remaining measured after 6 days by HPLC UV analysis; assay type: physicochemical; conditions: buffer, 144 h; time 6 day
Hepatitis B virus [2] = test: Antiviral activity against HBV infected in human HepG2.2.15 cells assessed as reduction in HBsAg level incubated for 6 days with media and compound replenishment on third day by CLIA; assay type: functional, organism-based; conditions: HepG2.2.15, 144 h; for EC90: time 6 day
[3] = Cytotoxicity in human HepG2.2.15 cells by Cell Titer-Glo assay; assay type: toxicity, cell-based, HepG2 2.2.15
[4] = Ratio of total drug concentration in liver to plasma in CD-1 mouse at 10 mg/kg, po measured for 12 hrs by LC-MS/MS analysis; assay type: ADME, organism-based; conditions: liver and plasma
[5] = AUC (0 to 24 hrs) in CD-1 mouse at 0.2 mg/kg, po measured for 24 hrs by LC-MS/MS analysis; assay type: ADME, organism-based; conditions: in vivo
[6] = Ratio of total drug concentration in liver to plasma in CD-1 mouse at 0.2 mg/kg, po measured for 12 hrs by LC-MS/MS analysis; assay type: ADME, organism-based; conditions: liver and plasma
[7] = Metabolic stability in Sprague-Dawley rat liver microsomes assessed as clearance at 0.3 uM preincubated for 5 mins followed by NADPH addition measured upto 60 mins by LC-MS/MS analysis; assay type: ADME, Microsome; conditions: time < 65 min, read-out: CLH
[8] = Selectivity ratio of drug concentration in liver in CD-1 mouse at 10 mg/kg, po measured for 24 hrs to EC90 for antiviral activity against HBV infected in human HepG2.2.15 cells assessed as reduction in HBsAg level; assay type: ADME, organism-based; conditions: in vivo
[9] = Selectivity ratio of drug concentration in liver in CD-1 mouse at 10 mg/kg, po measured for 12 hrs to EC90 for antiviral activity against HBV infected in human HepG2.2.15 cells assessed as reduction in HBsAg level; assay type: ADME, organism-based; conditions: in vivo
[10] = Ratio of total drug concentration in liver to plasma in CD-1 mouse at 10 mg/kg, po measured for 24 hrs by LC-MS/MS analysis; assay type: ADME, organism-based; conditions: for Ratio: mouse, in vivo, po, 10 mg/kg, 24 h, BLD = below limit of detection; for Kp at 24 h: CD-1, mouse, liver and plasma
[11] = Selectivity ratio of drug concentration in liver in CD-1 mouse at 0.2 mg/kg, po measured for 12 hrs to EC90 for antiviral activity against HBV infected in human HepG2.2.15 cells assessed as reduction in HBsAg level; assay type: ADME, organism-based; conditions: in vivo
[12] = Selectivity ratio of drug concentration in liver in CD-1 mouse at 0.2 mg/kg, po measured for 24 hrs to EC90 for antiviral activity against HBV infected in human HepG2.2.15 cells assessed as reduction in HBsAg level; assay type: ADME, organism-based; conditions: in vivo
[13] = Ratio of total drug concentration in liver to plasma in CD-1 mouse at 0.2 mg/kg, po measured for 24 hrs by LC-MS/MS analysis; assay type: ADME, organism-based; conditions: for Ratio: mouse, in vivo, po, 0.2 mg/kg, 24 h, BLD = below limit of detection
[14] = Metabolic stability in CD-1 mouse liver microsomes assessed as clearance at 0.3 uM preincubated for 5 mins followed by NADPH addition measured upto 60 mins by LC-MS/MS analysis; assay type: ADME, Microsome; conditions: time < 65 min, read-out: CLH
[15] = AUC (0 to 24 hrs) in CD-1 mouse at 10 mg/kg, po measured for 24 hrs by LC-MS/MS analysis; assay type: ADME, organism-based; conditions: in vivo
[16] = Metabolic stability in human liver microsomes assessed as clearance at 0.3 uM preincubated for 5 mins followed by NADPH addition measured upto 60 mins by LC-MS/MS analysis; assay type: ADME, Microsome; conditions: time < 65 min, read-out: CLH
[17] = Oral bioavailability in CD-1 mouse at 10 mg/kg measured for 24 hrs by LC-MS/MS analysis; assay type: ADME, organism-based; conditions: in vivo
Hepatitis B virus [18] = test: Antiviral activity against HBV genotype D in immuno-competent C57BL/6 mouse model of chronic HBV assessed as log10 reduction in HBsAg production at 3 mg/kg, po qd for 7 days measured 24 hrs post-last dose by EIA relative to control; assay type: functional; conditions: time 8 day
[19] = AUC (0 to 24 hrs) in Sprague-Dawley rat at 5 mg/kg, po measured for 24 hrs by LC-MS/MS analysis; assay type: ADME, organism-based; conditions: in vivo
[20] = Ratio of total drug concentration in liver to plasma in Sprague-Dawley rat at 5 mg/kg, po measured for 24 hrs by LC-MS/MS analysis; assay type: ADME, organism-based; conditions: other tissue
[21] = Selectivity ratio of drug concentration in liver in Sprague-Dawley rat at 5 mg/kg, po measured for 24 hrs to EC90 for antiviral activity against HBV infected in human HepG2.2.15 cells assessed as reduction in HBsAg level; assay type: ADME, organism-based; conditions: in vivo
[22] = Oral bioavailability in Sprague-Dawley rat at 5 mg/kg measured for 24 hrs by LC-MS/MS analysis; assay type: ADME, organism-based; conditions: in vivo
Hepatitis B virus [23] = test: Antiviral activity against HBV genotype D in immuno-competent C57BL/6 mouse model of chronic HBV assessed as log10 reduction in HBsAg production at 10 mg/kg, po qd for 7 days measured 24 hrs post-last dose by EIA relative to control; assay type: functional; conditions: time 8 day
Hepatitis B virus [24] = test: Antiviral activity against HBV genotype D in immuno-competent C57BL/6 mouse model of chronic HBV assessed as log10 reduction in HBsAg production at 10 mg/kg, po qd for 7 days measured 24 hrs post-last dose by EIA (reference value: 0.98); assay type: functional; conditions: time 8 day
Hepatitis B virus [25] = test: Antiviral activity against HBV genotype D in immuno-competent C57BL/6 mouse model of chronic HBV assessed as log10 reduction in HBsAg production at 3 mg/kg, po qd for 7 days measured 24 hrs post-last dose by EIA (reference value: 0.67); assay type: functional; conditions: time 8 day

| SMILES | EC50 (Hepatitis B virus [2]) [nM] | EC90 (Hepatitis B virus [2]) [nM] | Kp at 12 h [4] | microsomal CLint at 0.3 µM [7] [µL/min/mg] | microsomal CLint at 0.3 µM [14] [µL/min/mg] | AUC(0-t) at 24 h [15] [ng·h/mL] | microsomal CLint at 0.3 µM [16] [µL/min/mg] | Kp at 24 h [10] | CC50 [3] [nM] | Ratio [9] | Ratio [8] | further results |
| --- | --- | --- | --- | --- | --- | --- | --- | --- | --- | --- | --- | --- |
| CC(C)(C)C1Cc2c(nc3c(C(F)(F)F)cc(F)cn23)-c2[nH]c(=O)c(C(=O)O)cc21 (centres undefined) | 4.9 | 10 |  |  |  |  |  |  | > 50000 |  |  |  |
| CC(C)(C)[C@@H]1Cc2c(nc3c(OC(F)F)cccn23)-c2[nH]c(=O)c(C(=O)O)cc21 | 3.7 | 34 | 133 | 33 | 45 | 853 | 2 |  | > 50000 | 108 | 1 | Ratio [10]: Bld |
| COc1cccn2c3c(nc12)-c1[nH]c(=O)c(C(=O)O)cc1[C@H](C(C)(C)C)C3 | 12 | 121 | 11 |  | 16 |  | 1 |  | > 50000 | 3 |  |  |
| CC(C)(C)[C@@H]1Cc2c(nc3c(C(F)F)cccn23)-c2[nH]c(=O)c(C(=O)O)cc21 | 12 | 135 |  |  | 11 |  | 2 |  | > 50000 |  |  |  |
| CC(C)(C)[C@@H]1Cc2c(nc3c(OC(F)F)cc(OC(F)F)cn23)-c2[nH]c(=O)c(C(=O)O)cc21 | 7.9 | 7 |  |  |  |  |  |  | > 50000 |  |  |  |
| COc1ccn2c3c(nc2c1OC(F)F)-c1[nH]c(=O)c(C(=O)O)cc1[C@H](C(C)(C)C)C3 | 3.5 | 49 | 24 | 5 | 3 | 2690 | 4 | 19 | > 50000 | 69 | 1 | AUC(0-t) at 24 h [5]: 44 ng·h/mL; Kp at 12 h [6]: 22; Ratio [11]: 3; Ratio ([12]; BLD = below limit of detection): Bld; Ratio [13]: Bld |
| COc1ccn2c3c(nc2c1OC)-c1[nH]c(=O)c(C(=O)O)cc1[C@H](C(C)(C)C)C3 | 5.6 | 51 |  |  | 1 | 5100 |  | 5 | > 50000 |  | 0.3 |  |
| CC(C)(C)[C@@H]1Cc2c(nc3c(OC(F)F)cc(F)cn23)-c2[nH]c(=O)c(C(=O)O)cc21 | 3.7 | 54 | 105 | 4 | 3 | 2740 | 1 | 194 | > 50000 | 1080 | 203 | AUC(0-t) at 24 h [5]: 67 ng·h/mL; Kp at 12 h [6]: 176; log(activity) (Hepatitis B virus [24]): 0.37; Ratio [11]: 25; Ratio [12]: 7; Kp at 24 h ([13]; CD-1, mouse, liver and plasma): 101; log(activity) (Hepatitis B virus [25]): 0.16 |

Molecules with a lower EC50 (Hepatitis B virus [2]), results first:

| EC50 (Hepatitis B virus [2]) [nM] | EC90 (Hepatitis B virus [2]) [nM] | Kp at 12 h [4] | microsomal CLint at 0.3 µM [7] [µL/min/mg] | microsomal CLint at 0.3 µM [14] [µL/min/mg] | AUC(0-t) at 24 h [15] [ng·h/mL] | microsomal CLint at 0.3 µM [16] [µL/min/mg] | Kp at 24 h [10] | SMILES | CC50 [3] [nM] | Ratio [9] | Ratio [8] | further results |
| --- | --- | --- | --- | --- | --- | --- | --- | --- | --- | --- | --- | --- |
| 3.1 | 46 | 72 | 8 | 15 | 2150 | 2 | 92 | CC(C)(C)[C@@H]1Cc2c(nc3c(C(F)(F)F)cccn23)-c2[nH]c(=O)c(C(=O)O)cc21 | > 50000 | 438 | 3 |  |
| 2.3 | 7 |  |  |  |  |  |  | CC(C)(C)C1Cc2c(nc3c(C(F)(F)F)cc(Cl)cn23)-c2c1cc(C(=O)O)c(=O)n2C1CC1 (centres undefined) | 16000 |  |  |  |
| 2 | 34 |  |  | 3 |  | 3 |  | CC(C)(C)[C@@H]1Cc2c(nc3c(C(F)(F)F)cc(Cl)cn23)-c2[nH]c(=O)c(C(=O)O)cc21 | > 50000 |  |  |  |
| 1.5 | 14 |  | 279 | 64 | 989 | 6 | 308 | CC(C)(C)[C@@H]1Cc2c(nc3c(OC(F)F)cccn23)-c2[nH]c(=O)c(C(=O)O)c(O)c21 | 36000 |  | 92 | Stability [1]: Unstable; log(activity) (Hepatitis B virus [18]): 0.32; AUC(0-t) at 24 h [19]: 209 ng·h/mL; Ratio [20]: 4397; Ratio [21]: 1008; bioavailability [22]: 16%; bioavailability [17]: 27%; log(activity) (Hepatitis B virus [23]): 0.52 |
| 1.1 | 13 |  |  | 12 | 4940 | 57 | 1.3 | COCCCOc1cc2c(nc1OC)-c1[nH]c(=O)c(C(=O)O)c(O)c1[C@H](C(C)(C)C)C2 | 26000 |  | 4.6 | Stability [1]: Unstable; bioavailability [17]: 93% |
| 0.8 | 11 |  |  |  |  |  |  | Cc1cc(C(F)(F)F)c2nc3c(n2c1)CC(C(C)(C)C)c1cc(C(=O)O)c(=O)[nH]c1-3 (centres undefined) | 47000 |  |  |  |
| 0.3 | 2.4 |  |  |  |  |  |  | CC(C)(C)C1Cc2c(cc(OC(F)F)c3ncccc23)-c2[nH]c(=O)c(C(=O)O)c(O)c21 (centres undefined) | 48000 |  |  | Stability [1]: Unstable |
| 0.24 | 2.5 | 43 | 2 | 1 | 786 | 7 |  | Cn1c2c(cc(C(=O)O)c1=O)[C@H](C(C)(C)C)Cc1c-2nc2c(C(F)(F)F)cc(Cl)cn12 | 15000 | 2002 |  | AUC(0-t) at 24 h [5]: 17 ng·h/mL; Kp at 12 h [6]: 24; Ratio ([8]; BLD = below limit of detection): Bld; Ratio [10]: Bld; Ratio [11]: 22; Ratio ([12]; BLD = below limit of detection): Bld; Ratio [13]: Bld |
